Measured values taken from patent US9242984B2, “Pyrazolyl derivatives as Syk inhibitors” (Merck Sharp & Dohme Corp., priority 2012, dated 2016).
Read-outs that look alike come from different tables or passages of the source.

Target: T1, recombinant human Syk (GST-hSyk fusion protein) (Homo sapiens, UniProt P43405)
T1 construct: purchased Carna Biosciences 08-176
Test: Homogeneous Time-Resolved Fluorescence (HTRF) assay for the recombinant human Syk enzyme
Type: biochemical
Conditions: 10-dose titration, 25 μM ATP
Outline: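 GST-hSyk (5 pM) preincubated 10 min with compound (0.1% DMSO) in 15 mM Tris-HCl pH 7.5, 2 mM DTT; reaction started with 250 nM biotinylated peptide, 5 mM Mg, 25 μM ATP, 45 min, room temperature. EDTA quench, Eu-anti-phosphotyrosine/SA-APC HTRF read after 30 min; IC50 from 10-dose titration (10 μM–0.508 nM), four-parameter fit.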

[1] = IC50 class, read-out: rhSYK Activity

| Compound | IC50 (read-out: rhSYK IC50) | IC50 [1] |
| --- | --- | --- |
| 4-{[4-(6-{[4-(difluoromethyl)pyridin-2-yl]amino}-4-methylpyridin-2-yl)-1H-pyrazol-1-yl]methyl}pyrrolidin-2-one [Example 1.35] | – | ≤ 100 nM |
| Cc1cc(Nc2nccc(C(F)(F)F)n2)cc(-c2c(C)n[nH]c2C)c1 [Example 2.38, N-[3-(3,5-dimethyl-1H-pyrazol-4-yl)-5-methylphenyl]-4-(trifluoromethyl)pyrimidin-2-amine] | – | 100 to 1000 nM |
| Cc1cc(Nc2nccc(C(F)(F)F)n2)cc(-c2cn[nH]c2)c1 [Example 1.6, N-[3-methyl-5-(1H-pyrazol-4-yl)phenyl]-4-(trifluoromethyl)-pyrimidin-2-amine] | – | ≤ 100 nM |
| C[C@@](O)(CO)Cn1cc(-c2cccc(Nc3nccc(C(F)(F)F)n3)c2)cn1 [Example 2.86, (2S)-2-methyl-3-[4-(3-{[4-(trifluoromethyl)pyrimidin-2-yl]amino}phenyl)-1H-pyrazol-1-yl]propane-1,2-diol] | – | ≤ 100 nM |
| CCOC(=O)CCn1cc(-c2cc(C)cc(Nc3nccc(C)n3)c2)cn1 [Example 2.42, ethyl 3-(4-{3-methyl-5-[(4-methylpyrimidin-2-yl)amino]phenyl}-1H-pyrazol-1-yl)propanoate] | – | ≤ 100 nM |
| O=C1NCC(Cn2cc(-c3cccc(Nc4nccc(C(F)(F)F)n4)c3)cn2)O1 (stereo not shown) [Example 2.27, 5-{[4-(3-{[4-(trifluoromethyl)pyrimidin-2-yl]amino}phenyl)-1H-pyrazol-1-yl]methyl}-1,3-oxazolidin-2-one] | – | ≤ 100 nM |
| Cc1cc(Nc2nccc(C(F)F)n2)cc(-c2cnn(CC3OC(=O)NC3=O)c2)c1 (stereo not shown) [Example 2.75, 5-{[4-(3-{[4-(difluoromethyl)pyrimidin-2-yl]amino}-5-methylphenyl)-1H-pyrazol-1-yl]methyl}-1,3-oxazolidine-2,4-dione] | – | ≤ 100 nM |
| C[C@@](O)(CO)Cn1cc(-c2cccc(Nc3nccc(C(F)F)n3)c2)cn1 [Example 2.92, (2S)-3-[4-(3-{[4-(difluoromethyl)pyrimidin-2-yl]amino}phenyl)-1H-pyrazol-1-yl]-2-methylpropane-1,2-diol] | – | ≤ 100 nM |
| Cc1cc(Nc2nccc(C(F)(F)F)n2)cc(-c2cnn3ncccc23)c1 [Example 2.35, N-(3-methyl-5-pyrazolo[1,5-b]pyridazin-3-ylphenyl)-4-(trifluoromethyl)pyrimidin-2-amine] | – | ≤ 100 nM |
| 4-{[4-(4-methyl-6-{[4-(trifluoromethyl)-pyridin-2-yl]amino}-pyridin-2-yl)-1H-pyrazol-1-yl]methyl}-pyrrolidin-2-one [Example 1.39] | – | ≤ 100 nM |
| Cc1cc(Nc2cc(C(F)(F)F)ccn2)nc(-c2ccnn2C)n1 [Example 1.45, 6-methyl-2-(1-methyl-1H-pyrazol-5-yl)-N-[4-(trifluoro-methyl)pyridin-2-yl]pyrimidin-4-amine] | – | 100 to 1000 nM |
| NC(=O)CCn1cc(-c2cccc(Nc3nccc(C(F)(F)F)n3)c2)cn1 [Example 2.15, 3-[4-(3-{[4-(trifluoromethyl)pyrimidin-2-yl]amino}phenyl)-1H-pyrazol-1-yl]propanamide] | – | ≤ 100 nM |
| Cc1cc(Nc2nccc(C(F)(F)F)n2)cc(-c2cnn(C3CCC(C(=O)O)CC3)c2)c1 (stereo not shown) [Example 1.57, 4-[4-(3-methyl-5-{[4-(trifluoromethyl)pyrimidin-2-yl]amino}phenyl)-1H-pyrazol-1-yl]cyclohexanecarboxylic acid] | – | ≤ 100 nM |
| Cc1cc(Nc2nccc(C(F)(F)F)n2)cc(-c2ccnn2C)c1 [Example 1.9, N-[3-methyl-5-(1-methyl-1H-pyrazol-5-yl)phenyl]-4-(trifluoromethyl)pyrimidin-2-amine] | – | 100 to 1000 nM |

Second part, the compound after the results:

| IC50 (read-out: rhSYK IC50) | IC50 [1] | Compound |
| --- | --- | --- |
| 2 nM | – | Cc1cc(Nc2nccc(C(F)F)n2)cc(-c2cnn(CC3(O)CCC3)c2)c1 [Example 29.1, 1-((4-(3-((4-(Difluoromethyl)pyrimidin-2-yl)amino)-5-methylphenyl)-1H-pyrazol-1-yl)methyl)cyclobutanol] |
| – | ≤ 100 nM | Cc1cc(Nc2ncc(F)c(C)n2)cc(-c2cnn(C[C@@H](O)C(=O)O)c2)c1 [Example 11.13, (2R)-3-(4-{3-[(5-fluoro-4-methylpyrimidin-2-yl)amino]-5-methylphenyl}-1H-pyrazol-1-yl)-2-hydroxypropanoic acid] |
| – | ≤ 100 nM | Cc1cc(Nc2ncccn2)cc(-c2cnn(CC3CNC(=O)O3)c2)c1 (stereo not shown) [Example 3.116, 5-({4-[3-methyl-5-(pyrimidin-2-ylamino)phenyl]-1H-pyrazol-1-yl}methyl)-1,3-oxazolidin-2-one] |
| – | ≤ 100 nM | COC(=O)C(C)(O)Cn1cc(-c2cc(C)cc(Nc3nccc(C(F)(F)F)n3)c2)cn1 (racemic) [Example 5.4, methyl 2-hydroxy-2-methyl-3-[4-(3-methyl-5-{[4-(trifluoro-methyl)pyrimidin-2-yl]amino}phenyl)-1H-pyrazol-1-yl]propanoate] |
| – | ≤ 100 nM | Cc1cc(Nc2nccc(C(F)F)n2)cc(-c2cnn(CC(C)(C)O)c2)c1 [Example 5.35, 1-[4-(3-{[4-(difluoromethyl)pyrimidin-2-yl]amino}-5-methylphenyl)-1H-pyrazol-1-yl]-2-methylpropan-2-ol] |
| 6.2 nM | ≤ 100 nM | Cc1cc(Nc2nccc(C(F)F)n2)cc(-c2cnn(CC(C)(O)C(F)(F)F)c2)c1 (single isomer, unassigned) [Example 24.2, (S or R)-3-(4-(3-((4-(difluoromethyl)pyrimidin-2-yl)amino)-5-methylphenyl)-1H-pyrazol-1-yl)-1,1,1-trifluoro-2-methylpropan-2-ol] |
| 25.2 nM | ≤ 100 nM | Cc1cc(Nc2nccc(C(F)F)n2)cc(-c2cnn(CCNC(=O)C3CC3)c2)c1 [Example 26.1, N-(2-(4-(3-((4-(Difluoromethyl)pyrimidin-2-yl)amino)-5-methylphenyl)-1H-pyrazol-1-yl)ethyl)cyclopropanecarboxamide] |
| – | ≤ 100 nM | Cc1cc(Nc2nccc(C)n2)cc(-c2cnn(C[C@H](O)C(N)=O)c2)c1 [Example 6.3, (2S)-2-hydroxy-3-(4-{3-methyl-5-[(4-methylpyrimidin-2-yl)amino]phenyl}-1H-pyrazol-1-yl)propanamide] |
| – | ≤ 100 nM | Cc1cc(Nc2nccc(C(F)(F)F)n2)cc(-c2cnn(C3CCC(C(=O)O)c4ccccc43)c2)c1 (stereo not shown) [Example 3.51, 4-[4-(3-methyl-5-{[4-(trifluoromethyl)pyrimidin-2-yl]amino}phenyl)-1H-pyrazol-1-yl]-1,2,3,4-tetrahydronaphthalene-1-carboxylic acid] |
| – | ≤ 100 nM | Cc1cc(Nc2nccc(C(C)C)n2)cc(-c2cnn(C[C@@H](O)C(=O)O)c2)c1 [Example 11.16, (2R)-2-hydroxy-3-[4-(3-methyl-5-{[4-(1-methylethyl)-pyrimidin-2-yl]amino}phenyl)-1H-pyrazol-1-yl]propanoic acid] |
| – | ≤ 100 nM | Cc1cc(Nc2nccc(C(F)F)n2)cc(-c2cnn(CC(C)(C)NS(=O)(=O)C3CC3)c2)c1 [Example 27.5, N-{2-[4-(3-{[4-(difluoromethyl)pyrimidin-2-yl]amino}-5-methylphenyl)-1H-pyrazol-1-yl]-1,1-dimethylethyl}cyclopropanesulfonamide] |
| – | 100 to 1000 nM | Cc1cc(Nc2nccc(C)n2)cc(-c2cnn(C(C)(C)C(N)=O)c2)c1 [Example 8.10, 2-methyl-2-(4-{3-methyl-5-[(4-methyl-pyrimidin-2-yl)amino]-phenyl}-1H-pyrazol-1-yl)propanamide] |
| – | 100 to 1000 nM | COCC(C)(C)NC(=O)Cn1cc(-c2cc(C)cc(Nc3nccc(C(F)(F)F)n3)c2)cn1 [Example 3.12, N-(2-methoxy-1,1-dimethylethyl)-2-[4-(3-methyl-5-{[4-(trifluoromethyl)pyrimidin-2-yl]amino}phenyl)-1H-pyrazol-1-yl]acetamide] |
| – | ≤ 100 nM | Cc1cc(Nc2nccc(C)n2)cc(-c2cnn(CC3OC(=O)NC3C(C)C)c2)c1 (single isomer, unassigned) [Example 23.15, 4-(1-methylethyl)-5-[(4-{3-methyl-5-[(4-methylpyrimidin-2-yl)amino]phenyl}-1H-pyrazol-1-yl)methyl]-1,3-oxazolidin-2-one] |
| – | ≤ 100 nM | Cc1cc(Nc2nccc(C(F)(F)F)n2)cc(-c2cnn(CCCC(N)=O)c2)c1 [Example 8.9, 4-[4-(3-methyl-5-{[4-(trifluoromethyl)-pyrimidin-2-yl]amino}phenyl)-1H-pyrazol-1-yl]butanamide] |
| – | ≤ 100 nM | Cc1cc(Nc2nccc(C(F)F)n2)cc(-c2cnn(CC(O)CNC(=O)OC(C)(C)C)c2)c1 (stereo not shown) [Example 5.21, tert-butyl {3-[4-(3-{[4-(difluoromethyl)pyrimidin-2-yl]amino}-5-methylphenyl)-1H-pyrazol-1-yl]-2-hydroxypropyl}carbamate] |
| – | ≤ 100 nM | Cc1cc(Nc2nccc(C(F)(F)F)n2)cc(-c2cnn(C(C)C(C)(O)CO)c2)c1 (single isomer, unassigned) [Example 21.11, 2-methyl-3-[4-(3-methyl-5-{[4-(trifluoromethyl)pyrimidin-2-yl]amino}phenyl)-1H-pyrazol-1-yl]butane-1,2-diol] |
| – | ≤ 100 nM | COc1nc(Nc2cc(C)cc(-c3cnn(C[C@@H](O)C(=O)O)c3)c2)ncc1Cl [Example 11.9, (2R)-3-(4-{3-[(5-chloro-4-methoxy-pyrimidin-2-yl)-amino]-5-methyl-phenyl}-1H-pyrazol-1-yl)-2-hydroxy-propanoic acid] |
| 1.3 nM | ≤ 100 nM | Cc1cc(Nc2nccc(C(F)F)n2)cc(-c2cnn(C(C)C(C)(O)CO)c2)c1 (single isomer, unassigned) [Example 22.1, 3-(4-(3-((4-(Difluoromethyl)pyrimidin-2-yl)amino)-5-methylphenyl)-1H-pyrazol-1-yl)-2-methylbutane-1,2-diol] |
| – | ≤ 100 nM | Cc1cc(Nc2cc(C(C)(F)F)ccn2)nc(-c2cnn(CC3CNC(=O)O3)c2)c1 (stereo not shown) [Example 3.86, 5-{[4-(6-{[4-(1,1-difluoroethyl)pyridin-2-yl]amino}-4-methylpyridin-2-yl)-1H-pyrazol-1-yl]methyl}-1,3-oxazolidin-2-one] |
